Source: publication PMC10704561, “Multi-Photon-Sensitive Chromophore for the Photorelease of Biologically Active Phenols” (ACS Chemical Neuroscience, 2023)
Converted amounts (≈) assume the structure as drawn. Like-named read-outs stand apart in the source and are kept apart here.

Key:
[1] = Spontaneous hydrolysis in the dark; assay type: physicochemical; conditions: 0.1 mM in KMOPS pH 7.2, dark, 7 days
Procedure: A 0.1 mM solution of each compound was prepared in KMOPS buffer. For compounds 3d and 6c, 20% CH3CN was used as a cosolvent. The solutions were kept in the dark for 7 days, and the percentage of the starting materials was determined by periodic HPLC analysis (Supporting Information, HPLC Data).

[2] = UV-vis spectra and molar extinction coefficient in KMOPS buffer; assay type: physicochemical; conditions: 0.1 mM in KMOPS buffer, pH 7.2 (3d, 6c: 10 or 20% CH3CN added)
Procedure: A 100 μM solution of each protected phenol was prepared in KMOPS buffer (20% CH3CN was used as a cosolvent for compounds 3d and 6c). The UV–vis spectra of these solutions were recorded at between 250 and 500 nm. All of the measurements were repeated in triplicate, and the absorbance values were averaged. The Beer–Lambert law, ε = A(cl)^−1, was used for the calculation of ε values at λ = 365 nm, where A is the absorbance value measured at 365 nm, c is the concentration of the sample, and l is the cuvette length (1 cm). See the Supporting Information for the spectra.

[3] = One-photon excitation (1PE) photolysis with 365 nm LED, HPLC quantification; assay type: physicochemical; conditions: for t90% (time required to consume 90% of the starting material): 1PE 365 nm LED, lamp intensity differs per compound (Table S1)
Procedure: A 0.1 mM solution (3 mL) of each protected phenol in KMOPS buffer (10 or 20% CH3CN was used as a cosolvent for 3d and 6c) was placed in a 3 mL quartz cuvette along with a stirring bar. The solution was irradiated with stirring using a 365 nm LED lamp (Cairn OptoLED Lite). At different time intervals, 80 μL aliquots of the solution were taken out and analyzed by uHPLC (Agilent 1290 Infinity series), monitoring the AUC at 320 nm (Supporting Information, HPLC Data). An external standard calibration method of quantification was used for the calibration of the samples. The experiments were repeated in sets of three. A gradient elution with a flux rate of 0.3 mL/min using a mobile phase comprising A = 0.1% trifluoroacetic acid in water and B = acetonitrile (starting from 5% B to 100% over 10 min and re-equilibrating to 5% B before the next run) was used for the separations. A comparison of the AUC with the calibration curves of the substrates (obtained from known concentration) determined the percentages of the remaining starting materials. The percentages of the remaining starting materials were plotted versus time. The time to 90% of decomposition of the substrate (t90% values) was obtained by fitting a single exponential decay curve to the data using DeltaGraph (Red Rock Software). The following equation was used to calculate the quantum yield (Φu) of each photolysis reaction:[42],[47],[56],[57] Φu = (I σ t90%)^−1, where I is the irradiation intensity (determined by potassium ferrioxalate actinometry and measured in Einstein cm^–2 s^–1),[58] σ is the decadic extinction coefficient (1000 × ε) at 365 nm, and t90% is the time required to consume 90% of the starting material. See Supporting Information Table S1 for the I, σ, and t90% data.

[4] = Solubility in KMOPS buffer pH 7.2; assay type: physicochemical
Source text: The photochemical and photophysical properties were investigated in a simulated physiological buffer (KMOPS, pH 7.2) and compared with the literature data for CyHQ-O-DA (Table 1). […] For this derivative, 10% CH3CN in the buffer was used to ensure complete solubilization for the photochemistry experiments. The spontaneous hydrolysis in the dark was monitored over a period of 7 days and no significant hydrolysis was detected for any of the constructs. The molar absorptivity at the wavelength used for 1PE photolysis (ε365) ranged between 4800 and 5670 M^–1 cm^–1, in line with the values of most CyHQ-based PPGs.
The photochemical behavior of constructs 4–7c was investigated in KMOPS buffer at the concentration of 0.1 mM. Under these conditions, all compounds were soluble except for the VNA analogue 6c, which, because of the lipophilicity of the vanilloid, required 20% CH3CN for full solubilization. The stability toward hydrolysis in the dark was monitored over a week, and no significant decomposition was detected for any probe. All constructs were successfully photolyzed after light exposure, as shown in the time courses of the photolysis reactions (Figure 3). MeO-CyHQ constructs 4c, 6c, and 7c were photoactivated with excellent quantum efficiency and sensitivities, and good chemical yields were obtained by monitoring the appearance of the released bioeffector over the time course of the photoreaction (Table 1). […] We believe this effect is due to the presence of the thiophene ring, a well-known photoactive group,[51] which could act as an energy sink in the excited state and quench the photochemical reaction.

TRPV1 channels = molecular target: T1, TRPV1 channels (Homo sapiens, UniProt Q8NER1); experiment: TRPV1 activation on HEK 293 cells, Fluo-4 calcium imaging; assay type: cell-based
T1 construct: expressed in transfected cells
T1 sequence (Q8NER1 whole entry): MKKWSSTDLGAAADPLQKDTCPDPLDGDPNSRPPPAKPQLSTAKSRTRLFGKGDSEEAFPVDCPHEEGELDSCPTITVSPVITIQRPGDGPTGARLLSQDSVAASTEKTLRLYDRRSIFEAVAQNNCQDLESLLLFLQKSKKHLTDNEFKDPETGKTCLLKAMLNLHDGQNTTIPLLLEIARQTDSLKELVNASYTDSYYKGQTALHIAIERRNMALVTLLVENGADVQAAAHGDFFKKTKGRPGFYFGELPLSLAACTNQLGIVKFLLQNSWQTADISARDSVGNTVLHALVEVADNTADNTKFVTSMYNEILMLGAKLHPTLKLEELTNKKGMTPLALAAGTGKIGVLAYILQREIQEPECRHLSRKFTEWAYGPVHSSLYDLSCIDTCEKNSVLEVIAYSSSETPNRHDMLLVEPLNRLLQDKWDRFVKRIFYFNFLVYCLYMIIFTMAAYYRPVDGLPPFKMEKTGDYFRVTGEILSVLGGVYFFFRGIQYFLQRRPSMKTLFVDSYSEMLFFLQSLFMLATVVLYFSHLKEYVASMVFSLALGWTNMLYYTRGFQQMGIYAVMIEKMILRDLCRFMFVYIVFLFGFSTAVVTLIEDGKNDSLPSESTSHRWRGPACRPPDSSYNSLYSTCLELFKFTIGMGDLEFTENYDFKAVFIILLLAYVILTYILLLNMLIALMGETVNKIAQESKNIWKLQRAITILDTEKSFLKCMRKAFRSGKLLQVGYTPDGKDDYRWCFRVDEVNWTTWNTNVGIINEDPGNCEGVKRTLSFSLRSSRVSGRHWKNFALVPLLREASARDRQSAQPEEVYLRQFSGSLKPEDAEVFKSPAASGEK
Procedure: HCT 116 cells were grown in Dulbecco’s […] medium (DMEM) supplemented with 10% fetal bovine serum (FBS), 1% nonessential amino acids (NEAA), and maintained at 37 °C and 5% CO2. HEK 293 cells stably expressing TRPV1 channels were grown as previously described.[62]
HEK 293 cells (stably expressing TRPV1 channels) were plated on a 35 mm glass-bottom dish (previously coated with poly-D-Lysine) a day before the experiment. A mixture of pluronic F-127 (Molecular Probes) and Fluo-4 AM (50 μg, Life Technologies) dissolved in dimethylsulfoxide (DMSO) (50 μL) was added to Hank’s balanced salt solution (HBSS) and sonicated for 5 min to prepare a solution containing a 0.02% final concentration of each. The solution was then loaded onto the cells growing in the 35 mm glass-bottom dish and incubated for 35–45 min in a humidified CO2 incubator (37 °C, 5% CO2). The cells were washed with HBSS (3 × 2 mL each) and subsequently maintained in HBSS during photoactivation experiments.
An Olympus FluoView FV1000MPE confocal microscope was employed to image and record cells plated onto 35 mm glass-bottom 4-well plates. A 488 nm ion laser excited the dopamine and serotonin sensors dLight 1.2 and GRAB5-HT, respectively, and Fluo-4 calcium dye. FluoView 10-ASW version 4.0 (Olympus), ImageJ-Fiji, and DeltaGraph (Red Rock Software) were used for capturing, extracting, and processing the collected data. Photoactivation was conducted with 405 nm (100% laser power, 1PE) or 720 nm (10% laser power, 24 mW, 2PE) light for MeO-CyHQ-O-DA and MeO-CyHQ-O-5HT or 740 nm (20% laser power, 15 mW light) for MeO-CyHQ-O-VNA and MeO-CyHQ-O-EG. Images were captured by using a 60× immersion lens.
Solutions of MeO-CyHQ-O-VNA or MeO-CyHQ-O-EG were added to HEK 293 cells stably expressing TRPV1 channels and loaded with Fluo-4 in a 35 mm glass-bottom dish. An area near a cell was irradiated with a single short pulse of 405 nm laser light while imaging with the 488 nm laser. Similarly, VNA and eugenol were released through 2PE using 740 nm light.

[5] = HEK 293 cells expressing TRPV1, exposure to 740 nm light, data not shown

Compound | τd (time constant of spontaneous hydrolysis in buffer in the dark at room temperature) [1] | ε365 [2] | λmax [2] | t90% (time required to consume 90% of the starting material) [3] | solubility ([4]; pH 7.2, aqueous buffer) | other results
CCCCCCCCC(=O)NCc1ccc(OCc2cc(OC)c3ccc(O)c(C#N)c3n2)c(OC)c1 [6c, N-(4-((8-Cyano-7-hydroxy-4-methoxyquinolin-2-yl)methoxy)-3-methoxybenzyl)nonanamide] | nh (No hydrolysis (<5% detected after 7 days)) | 3375 M^–1 cm^–1 | 341 nm | 23.1 s | 77 µM (≈ 38.9 µg/mL) | Fluo-4 calcium response after photoactivation (1PE) (TRPV1 channels; HEK 293 cells expressing TRPV1, 2.5 μM, 50 ms pulse of 405 nm light): robust response; Fluo-4 calcium response after photoactivation (2PE) (TRPV1 channels; HEK 293 cells expressing TRPV1, 5 μM, 250 ms pulse of 740 nm light): robust response
C=CCc1ccc(OCc2ccc3ccc(O)c(C#N)c3n2)c(OC)c1 [CyHQ-EG, reference compound] | – | – | – | – | – | Fluo-4 calcium response after photoactivation (2PE) (TRPV1 channels; [5]): did not induce any response
CCCN(CCc1cccs1)[C@@H]1CCc2c(cccc2OCc2cc(OC)c3ccc(O)c(C#N)c3n2)C1 [5c, (R)-7-Hydroxy-4-methoxy-2-(((6-(propyl(2-(thiophen-2-yl)ethyl)amino)-5,6,7,8-tetrahydronaphthalen-1-yl)oxy)methyl)quinoline-8-carbonitrile] | nh (No hydrolysis (<5% detected after 7 days)) | 2300 M^–1 cm^–1 | 343 nm | 143.9 s | > 100 µM | –
N#Cc1c(O)ccc2c(N3CCOCC3)cc(COc3cc(CCN)ccc3O)nc12.O=C(O)C(F)(F)F [3b, 2-(3-((8-Cyano-7-hydroxy-4-morpholinoquinolin-2-yl)methoxy)-4-hydroxyphenyl)ethan-1-aminium 2,2,2-trifluoroacetate] | nh (No hydrolysis (<5% detected after 7 days)) | 4900 M^–1 cm^–1 | 358 nm | 23.2 s | > 100 µM | irradiation time to complete the 1PE photolysis reaction ([3]; 365 nm): less than 1 min
CCCCCCCCC(=O)NCc1ccc(OCc2ccc3ccc(O)c(C#N)c3n2)c(OC)c1 [CyHQ-VNA, reference compound] | – | – | – | – | – | Fluo-4 calcium response after photoactivation (2PE) (TRPV1 channels; [5]): did not induce any response
Cc1ccc(-c2cc(COc3cc(CCN)ccc3O)nc3c(C#N)c(O)ccc23)cc1.O=C(O)C(F)(F)F [3d, 2-(3-((8-Cyano-7-hydroxy-4-(p-tolyl)quinolin-2-yl)methoxy)-4-hydroxyphenyl)ethan-1-aminium 2,2,2-trifluoroacetate] | nh (No hydrolysis (<5% detected after 7 days)) | 4800 M^–1 cm^–1 | 372 nm | 76.7 s | 85 µM | solubility ([4]; pH 7.2): slightly lower solubility
Cc1cc(COc2cc(CCN)ccc2O)nc2c(C#N)c(O)ccc12.O=C(O)C(F)(F)F [3a, 2-(3-((8-Cyano-7-hydroxy-4-methylquinolin-2-yl)methoxy)-4-hydroxyphenyl)ethan-1-aminium 2,2,2-trifluoroacetate] | nh (No hydrolysis (<5% detected after 7 days)) | 5000 M^–1 cm^–1 | 365 nm | 28.0 s | – | solubility ([4]; aqueous buffer, KMOPS buffer, pH 7.2, read-out: solubility): > 100 µM
COc1cc(-c2cc(COc3cc(CCN)ccc3O)nc3c(C#N)c(O)ccc23)cc(OC)c1OC.O=C(O)C(F)(F)F [3e, 2-(3-((8-Cyano-7-hydroxy-4-(3,4,5-trimethoxyphenyl)quinolin-2-yl)methoxy)-4-hydroxyphenyl)ethan-1-aminium 2,2,2-trifluoroacetate] | nh (No hydrolysis (<5% detected after 7 days)) | 5210 M^–1 cm^–1 | 372 nm | 188.7 s | > 100 µM | –
C=CCc1ccc(OCc2cc(OC)c3ccc(O)c(C#N)c3n2)c(OC)c1 [7c, 2-((4-Allyl-2-methoxyphenoxy)methyl)-7-hydroxy-4-methoxyquinoline-8-carbonitrile] | nh (No hydrolysis (<5% detected after 7 days)) | 7540 M^–1 cm^–1 | 351 nm | 19.5 s | > 100 µM | Fluo-4 calcium response after photoactivation (1PE) (TRPV1 channels; HEK 293 cells expressing TRPV1, 5 μM, 500 ms pulse of 405 nm light): EG was released; Fluo-4 calcium response after photoactivation (2PE) (TRPV1 channels; HEK 293 cells expressing TRPV1, 5 μM, 500 ms pulse of 740 nm light): sufficient response
CCCCCCCCC(=O)NCc1ccc(O)c(OC)c1 [VNA, N-vanillyl-nonanoylamide, reference compound] | – | – | – | – | – | relative potency as activator of TRPV1 channels (VNA versus EG) (TRPV1 channels; inferred from concentration and pulse duration needed for release, 405 nm): more potent activator of TRPV1 channels
